Experimental data taken from paper PMC6199744, “Development of Chemical Proteomics for the Folateome and Analysis of the Kinetoplastid Folateome” (ACS Infectious Diseases, 2018).
Read-outs that look alike come from different tables or passages of the source.

Assays:
Type in all cases: binding
[1] = target: T1, HeLa cell extract proteins (Homo sapiens, UniProt P30405); conditions: protein PPIF; HeLa
T1 construct: endogenous in cells; host or cells: HeLa cell extract

[2] = target: T2, HeLa cell extract proteins (Homo sapiens, UniProt O60684); conditions: protein KPNA6; HeLa
T2 construct: endogenous in cells; host or cells: HeLa cell extract

[3] = target: T3, HeLa cell extract proteins (Homo sapiens, UniProt P55084)
T3 construct: endogenous in cells; host or cells: HeLa cell extract
T3 sequence (P55084 34-474): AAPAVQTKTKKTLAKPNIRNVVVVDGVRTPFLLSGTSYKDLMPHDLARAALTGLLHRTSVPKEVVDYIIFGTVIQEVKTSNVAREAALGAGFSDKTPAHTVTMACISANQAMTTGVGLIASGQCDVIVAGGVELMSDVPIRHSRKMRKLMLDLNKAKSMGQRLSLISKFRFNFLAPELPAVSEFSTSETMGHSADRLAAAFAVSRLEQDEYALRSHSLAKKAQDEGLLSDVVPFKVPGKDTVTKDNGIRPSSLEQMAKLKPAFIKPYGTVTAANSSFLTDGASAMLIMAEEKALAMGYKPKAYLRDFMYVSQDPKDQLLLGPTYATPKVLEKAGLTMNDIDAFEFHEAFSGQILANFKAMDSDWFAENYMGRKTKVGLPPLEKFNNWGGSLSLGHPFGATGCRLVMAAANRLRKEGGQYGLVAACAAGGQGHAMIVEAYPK

[4] = target: T4, HeLa cell extract proteins (Homo sapiens, UniProt P04279)
T4 construct: endogenous in cells; host or cells: HeLa cell extract
T4 sequence (P04279 24-462): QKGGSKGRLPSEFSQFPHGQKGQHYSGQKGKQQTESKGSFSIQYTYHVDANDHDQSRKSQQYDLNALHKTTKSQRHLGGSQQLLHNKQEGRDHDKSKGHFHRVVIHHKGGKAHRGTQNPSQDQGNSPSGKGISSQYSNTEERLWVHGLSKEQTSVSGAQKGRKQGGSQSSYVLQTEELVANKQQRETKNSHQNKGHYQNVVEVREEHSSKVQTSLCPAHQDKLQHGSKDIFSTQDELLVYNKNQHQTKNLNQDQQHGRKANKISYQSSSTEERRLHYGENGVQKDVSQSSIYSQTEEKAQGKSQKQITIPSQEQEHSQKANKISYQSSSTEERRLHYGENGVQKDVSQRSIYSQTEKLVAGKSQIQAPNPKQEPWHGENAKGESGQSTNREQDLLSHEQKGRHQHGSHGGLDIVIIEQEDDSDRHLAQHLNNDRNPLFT

[5] = target: T5, HeLa cell extract proteins (Homo sapiens, UniProt P52565)
T5 construct: endogenous in cells; host or cells: HeLa cell extract
T5 sequence (P52565 1-204): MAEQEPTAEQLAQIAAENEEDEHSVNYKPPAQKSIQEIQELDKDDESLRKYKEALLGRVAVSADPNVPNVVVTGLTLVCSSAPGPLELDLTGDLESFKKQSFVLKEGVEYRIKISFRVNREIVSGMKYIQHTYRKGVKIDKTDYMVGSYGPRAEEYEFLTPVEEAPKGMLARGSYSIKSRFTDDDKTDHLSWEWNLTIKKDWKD

[6] = target: T6, HeLa cell extract proteins (Homo sapiens, UniProt Q15386)
T6 construct: endogenous in cells; host or cells: HeLa cell extract
T6 sequence (Q15386 1-1083): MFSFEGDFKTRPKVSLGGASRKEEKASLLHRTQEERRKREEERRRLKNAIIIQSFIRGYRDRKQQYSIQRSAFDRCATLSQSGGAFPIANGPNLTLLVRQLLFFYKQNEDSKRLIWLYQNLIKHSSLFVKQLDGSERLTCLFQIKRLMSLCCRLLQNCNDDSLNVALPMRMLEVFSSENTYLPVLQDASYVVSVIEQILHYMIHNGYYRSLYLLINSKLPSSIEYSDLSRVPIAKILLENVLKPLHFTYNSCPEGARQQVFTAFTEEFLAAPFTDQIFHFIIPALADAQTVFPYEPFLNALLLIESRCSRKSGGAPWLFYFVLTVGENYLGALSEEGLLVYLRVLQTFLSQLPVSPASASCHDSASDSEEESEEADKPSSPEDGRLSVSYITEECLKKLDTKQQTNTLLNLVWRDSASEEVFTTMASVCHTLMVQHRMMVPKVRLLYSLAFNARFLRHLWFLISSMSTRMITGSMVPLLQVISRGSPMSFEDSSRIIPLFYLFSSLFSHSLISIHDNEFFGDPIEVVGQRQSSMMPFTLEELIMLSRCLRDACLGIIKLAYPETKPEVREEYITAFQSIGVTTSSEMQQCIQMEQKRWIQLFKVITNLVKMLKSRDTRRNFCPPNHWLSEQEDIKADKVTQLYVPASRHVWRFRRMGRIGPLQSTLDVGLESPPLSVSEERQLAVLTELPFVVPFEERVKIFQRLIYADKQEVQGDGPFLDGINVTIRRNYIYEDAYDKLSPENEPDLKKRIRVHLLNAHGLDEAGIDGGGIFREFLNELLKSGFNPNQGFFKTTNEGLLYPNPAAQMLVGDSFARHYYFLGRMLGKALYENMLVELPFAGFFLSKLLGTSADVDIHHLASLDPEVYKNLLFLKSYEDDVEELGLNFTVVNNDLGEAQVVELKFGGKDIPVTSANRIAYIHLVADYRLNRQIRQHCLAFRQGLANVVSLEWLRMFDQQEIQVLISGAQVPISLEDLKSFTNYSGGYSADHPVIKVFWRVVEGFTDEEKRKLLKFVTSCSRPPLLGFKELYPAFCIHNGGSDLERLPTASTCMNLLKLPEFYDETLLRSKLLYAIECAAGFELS

T1 sequence (P30405 30-207): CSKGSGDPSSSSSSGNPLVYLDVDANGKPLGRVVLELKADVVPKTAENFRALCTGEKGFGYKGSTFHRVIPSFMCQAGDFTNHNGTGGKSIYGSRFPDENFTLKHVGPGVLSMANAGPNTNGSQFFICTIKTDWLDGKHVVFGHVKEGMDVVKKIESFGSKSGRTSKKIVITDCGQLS

Compound	fold changes relative to vehicle control [1]	fold changes relative to vehicle control [2]	fold changes relative to vehicle control ([3]; HeLa, protein HADHB)	fold changes relative to vehicle control ([4]; protein SEMG1, HeLa)	fold changes relative to vehicle control ([5]; HeLa, protein ARHGDIA)	fold changes relative to vehicle control ([6]; HeLa, protein UBE3C)	further results
Nc1nc2cccc(-c3ccccc3)c2n1Cc1ccc(Cl)c(Cl)c1 [compound 3]	0.95	1.15					
CCCCCCOc1ccc(Cc2cnc(N)nc2N)cc1 [compound 1]	1.23	1.16					
NCCCNc1ccc(C(=O)NC(CCC(=O)O)C(=O)O)cc1 (stereo not shown) [compound 7]			1.04	0.09	1.08	1.04	
CCCCCCOc1cccc(Cc2cnc(N)nc2N)c1 [compound 2]	1.79	1.34					
NCCOCCOCC(=O)Nc1nc2ncc(CNc3ccc(C(=O)NC(CCC(=O)O)C(=O)O)cc3)nc2c(=O)[nH]1 (stereo not shown) [compound 6]			1.12	0.16	1.18	1.01	
Nc1nc2[nH]cc(CCc3ccc(C(=O)N[C@@H](CCC(=O)O)C(=O)O)cc3)c2c(=O)[nH]1 [PTX, pemetrexed]							fold changes relative to vehicle control [3]: 0.94; fold changes relative to vehicle control [4]: 0.14; fold changes relative to vehicle control [5]: 1.08; fold changes relative to vehicle control [6]: 0.96
Nc1nc2c(c(=O)[nH]1)N(C=O)C(CNc1ccc(C(=O)N[C@@H](CCC(=O)O)C(=O)O)cc1)CN2 (stereo partly shown) [LEU, leucovorin]			0.85	0.13	1.03	0.91	
